Two molecules from patent US20190328819A1 (priority 2016, published 2019) can be followed below.

Data set [1] relates to human dermal fibroblasts. The data set is described as follows: Exposure to Cd(II), fibroblast survival. Format: cell-based.
Data set [2] deals with human dermal fibroblasts. The data set is described as follows: Exposure to As(III) (sodium arsenite), fibroblast survival. Format: cell-based. The following applies: 9 mM sodium arsenite, 24 hours, no EDA. The protocol: Deschampsia antarctica extract (EDA): In experiments with fibroblasts, lyophilized EDA batch 051214 was used. The product was dissolved in a complete DMEM medium at a concentration of 5 mg/ml, stirred in a magnetic stirrer for 30 minutes and filtered through a 0.2 μm sterile cellulose acetate filter (Minisart, Sartorius).
As(III): sodium arsenite (NaAsO2) at a final concentration of 9 mM was dissolved in phenol red-free DMEM medium and filtered through a 0.2 μm sterile cellulose acetate filter (Minisart, Sartorius).
The cells used were human dermal fibroblasts isolated from the outer area of the retroauricular flap obtained from different healthy voluntary donors and preserved in liquid N2. The experiments used cells grown in culture flasks containing DMEM supplemented with 2 mM glutamine, […], 10% fetal bovine serum, in a Heraeus oven with an atmosphere of 7% CO2 and 93% humidified air at 37° C., until reaching about 90% of confluence, after which a new pass was performed by means of trypsinization. […]
The plates were washed twice with Hank's. […] It was carefully stirred in a plate stirrer and the absorbance at 550 nm was read in a BMG Fluostar Optima spectrophotometer.

Several values for one entry are separate records, joined by “and”; a condition that tells them apart may be missing. Identical values can stand only once.

In the data set on human dermal fibroblasts [1] (3 μM Cd, 24 hours, no EDA), `[Cl][Cd][Cl]` [Cd, cadmium chloride] showed a Survival % of 54.9% and a Survival x of 0.188 u abs. Moreover, the mortality entry in the data set on human dermal fibroblasts [1] (Cd(II) at 3 μM (FIG. 7)) is “about 50%”.

For `O=[As]O` [sodium arsenite], in the data set with human dermal fibroblasts [2], the “Survival % (vs CC)” value is 42.0% and 54.6% and 46.4%; the Survival x is 0.209 u abs and 0.206 u abs and 0.334 u abs.
